Assay results reported in patent US12186314B2, “Compositions and methods for treatment, amelioration, and prevention of anesthesia-induced hypothermia” (ARIZONA BOARD OF REGENTS ON BEHALF OF THE UNIVERSITY OF …, priority 2015, dated 2025).
Entries after “also recorded” stand apart in the source; their conditions may differ. Read-outs that look alike come from different tables or passages of the source.

Columns and labels:
TRPV1 [1] = target: T1, TRPV1 (Rattus norvegicus, UniProt O35433); parameters: from tissue; host or cells: whole live non-anesthetized rats; details: non-anesthetized (unanesthetized) rats, cited from earlier work
TRPV1 [2] = target: T1, TRPV1; assay: isoflurane anesthesia-induced hypothermia in adult rats, various TRPV1 antagonists, rectal temperature; type: in vivo; parameters: from tissue; host or cells: whole live non-anesthetized rats; details: isoflurane 2 L/min, 5% induction, 2.5% maintenance, 20 minutes post anesthesia-induction
Description: After acclimatizing to the testing chamber and obtaining baseline core body temperature, adult rats were anesthetized with isoflurane (2 L/min, 5% induction, 2.5% maintenance) and the anesthetized animals were injected with vehicle or various TRPV1 antagonists at doses described and rectal temperature was monitored for 20 minutes post anesthesia-induction.

TRPV1 [3] = target: T2, TRPV1 (Homo sapiens, UniProt Q8NER1); details: non-anesthetized humans; cited from earlier work
T2 construct: host or cells: human subjects (clinical observations)

TRPV1 [4] = target: T1, TRPV1; assay: core body temperature during isoflurane anesthesia and in the post-anesthesia period; type: in vivo; parameters: from tissue; host or cells: whole live non-anesthetized rats; details: rats
Description: After taking baseline core body temperature, rats were anesthetized with isoflurane and quickly injected with either vehicle or 0.1 mg/kg of AMG 517 via a tail vein injection. The core body temperature was measured every 5 minutes during the duration of anesthesia (45 min) and 30 minutes after that (n=8 per group) (see, FIG. 3).

TRPV1 [5] = target: T1, TRPV1; details: 24 hours post surgery
TRPV1 [6] = target: T1, TRPV1; assay: isoflurane anesthesia-induced hypothermia in neonatal rats, core body temperature; type: in vivo; parameters: from tissue; host or cells: whole live non-anesthetized rats; details: neonatal rats (age 10d), 1 mg/kg i.v. (at 20 min time point) and 2 mg/kg (all time points)
Description: Briefly, after gently separating neonatal male or female rats (age 10d) from the littermates, the animals were exposed to isoflurane anesthesia (5% induction, 2.5% maintenance), and then were injected with either vehicle or AMG 517 (1-2 mg/kg, i.v.) and core body temperature was measured at 5 minute intervals.

TRPV1 [7] = target: T1, TRPV1; assay: volatile (isoflurane) anesthesia-induced hypothermia in adult rats, rectal core body temperature; type: in vivo; parameters: from tissue; host or cells: whole live non-anesthetized rats; details: isoflurane 5% induction, 2.5% maintenance, 0.01, 0.1 and 1 mg/kg, 5 min intervals, 0.1 and 1 mg/kg significant at all time points (p<0.01)
Description: Briefly, after obtaining baseline core body temperature, lightly restrained rats were anesthetized with isoflurane (5% induction, 2.5% maintenance), the effect of varying dose of AMG 517 (0.01, 0.1 and 1 mg/kg) and control (vehicle) on rectally-measured temperature (core body temperature) was measured at 5 min intervals. At 20 minutes, a warming blanket was used to prevent further temperature drop in the control (vehicle) group. Vehicle treated rats developed hypothermia after exposure to anesthesia.

TRPV1 [8] = target: T1, TRPV1; assay: ketamine-induced hypothermia in rats, core body temperature; type: in vivo; parameters: from tissue; host or cells: whole live non-anesthetized rats; details: ketamine 100 mg/kg, 0.01-1 mg/kg tail vein
Description: This example describes the use of AMG 517 to reverse hypothermia induced by a non-volatile anesthetic (ketamine) (FIG. 5). After taking baseline core body temperature, rats were anesthetized with ketamine (100 mg/kg) and quickly injected with either vehicle or 0.01-1 mg/kg of AMG 517 via a tail vein injection. The core body temperature was measured every 5 minutes for 20 minutes post ketamine injection (n=8 per group).

T2 sequence (Q8NER1 whole entry): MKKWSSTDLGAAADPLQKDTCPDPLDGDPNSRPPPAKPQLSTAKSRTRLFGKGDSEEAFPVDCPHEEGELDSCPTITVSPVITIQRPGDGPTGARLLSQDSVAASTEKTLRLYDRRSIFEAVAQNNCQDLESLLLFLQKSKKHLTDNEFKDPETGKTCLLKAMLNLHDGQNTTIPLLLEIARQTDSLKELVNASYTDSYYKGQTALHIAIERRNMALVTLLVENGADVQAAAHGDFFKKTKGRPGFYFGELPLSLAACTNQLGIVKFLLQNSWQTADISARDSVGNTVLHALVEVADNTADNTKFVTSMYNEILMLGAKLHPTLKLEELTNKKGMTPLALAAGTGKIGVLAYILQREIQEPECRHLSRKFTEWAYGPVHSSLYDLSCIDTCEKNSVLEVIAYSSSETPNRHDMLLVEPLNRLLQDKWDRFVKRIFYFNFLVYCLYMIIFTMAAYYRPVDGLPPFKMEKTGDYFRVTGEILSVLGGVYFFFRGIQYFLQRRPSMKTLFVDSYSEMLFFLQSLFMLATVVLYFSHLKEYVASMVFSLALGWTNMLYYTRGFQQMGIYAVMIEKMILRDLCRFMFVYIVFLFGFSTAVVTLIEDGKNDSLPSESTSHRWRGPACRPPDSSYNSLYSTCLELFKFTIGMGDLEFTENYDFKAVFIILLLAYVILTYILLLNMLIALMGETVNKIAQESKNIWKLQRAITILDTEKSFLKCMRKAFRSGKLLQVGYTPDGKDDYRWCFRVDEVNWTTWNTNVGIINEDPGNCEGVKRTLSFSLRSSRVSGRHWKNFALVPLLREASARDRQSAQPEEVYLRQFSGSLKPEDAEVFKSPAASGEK
T1 sequence (O35433 whole entry): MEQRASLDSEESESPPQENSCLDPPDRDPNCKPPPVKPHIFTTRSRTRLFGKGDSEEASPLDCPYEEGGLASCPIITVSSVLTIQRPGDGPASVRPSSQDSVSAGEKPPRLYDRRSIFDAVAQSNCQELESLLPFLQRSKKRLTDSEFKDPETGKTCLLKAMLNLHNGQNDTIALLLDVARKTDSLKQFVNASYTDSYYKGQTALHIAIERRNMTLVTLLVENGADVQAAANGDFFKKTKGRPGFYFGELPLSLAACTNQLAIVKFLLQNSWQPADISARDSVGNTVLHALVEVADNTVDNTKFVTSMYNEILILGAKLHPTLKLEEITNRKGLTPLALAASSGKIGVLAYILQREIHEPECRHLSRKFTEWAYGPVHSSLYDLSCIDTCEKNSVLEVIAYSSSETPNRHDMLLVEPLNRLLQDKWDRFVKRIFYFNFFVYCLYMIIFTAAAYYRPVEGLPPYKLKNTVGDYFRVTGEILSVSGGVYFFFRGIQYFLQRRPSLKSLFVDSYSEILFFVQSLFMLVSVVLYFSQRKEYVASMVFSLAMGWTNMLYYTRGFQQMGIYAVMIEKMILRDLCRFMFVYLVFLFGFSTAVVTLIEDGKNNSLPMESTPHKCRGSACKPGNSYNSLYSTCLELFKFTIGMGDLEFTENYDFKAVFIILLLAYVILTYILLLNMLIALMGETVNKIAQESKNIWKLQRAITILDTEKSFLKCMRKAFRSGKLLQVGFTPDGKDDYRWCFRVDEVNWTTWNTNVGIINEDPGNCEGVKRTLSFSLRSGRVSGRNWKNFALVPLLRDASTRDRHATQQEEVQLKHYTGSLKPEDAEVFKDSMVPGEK

Structure (SMILES)	ability to cause hyperthermia (TRPV1 [1])	reversal/prevention of anesthesia-induced hypothermia (rectal temperature) (TRPV1 [2])	ability to cause hyperthermia (TRPV1 [3])	further results
Cc1cc2c(NC(=O)N[C@@H]3CC(CF)(CF)Oc4cc(Cl)ccc43)cccc2cn1 [A-1165442]	unable to cause hyperthermia			
CC(C)(C)c1ccc2c(c1)CC[C@H]2NC(=O)Nc1cccc2[nH]ncc12 [ABT 102]	able to cause hyperthermia	dose dependently reverse anesthesia-induced hypothermia	able to cause hyperthermia	ability to cause hyperthermia (TRPV1 [1]; listed as ABT): cause hyperthermia in unanesthetized rats
CC(=O)Nc1nc2c(Oc3cc(-c4ccc(C(F)(F)F)cc4)ncn3)cccc2s1 [AMG 517]	able to cause hyperthermia		able to cause hyperthermia	hyperthermia in the post-anesthesia period (TRPV1 [4]; 0.1 mg/kg tail vein, 30 minutes after anesthesia, 0.1 mg/kg): does not produce hyperthermia in the post-anesthesia period; also recorded: did not cause hyperthermia even when the animals recovered from anesthesia; development of hypothermia during anesthesia (core body temperature) (TRPV1 [4]; isoflurane 45 min, 0.1 mg/kg tail vein injection): never developed hypothermia throughout the anesthesia period; opioid sparing effect on postsurgical thermal and mechanical hyperalgesia (TRPV1 [5]; rats, preemptive tail vein dose before incision, subcutaneous morphine): opioid sparing effect; reversal of anesthesia-induced hypothermia (core body temperature) (TRPV1 [6]): partially and statistically significantly; reversal of anesthesia-induced hypothermia (rectally-measured core body temperature) (TRPV1 [7]): dose dependently reversed anesthesia-induced hypothermia; hyperthermia under ketamine anesthesia (TRPV1 [8]): without causing hyperthermia at all time points tested; reversal of ketamine-induced hypothermia (core body temperature) (TRPV1 [8]; 20 minutes post ketamine): dose dependently and statistically significantly
CC(C)(C)c1ccc(/C=C/C(=O)Nc2ccc3c(c2)OCCO3)cc1 [AMG 9810]	able to cause hyperthermia	dose dependently reverse anesthesia-induced hypothermia	able to cause hyperthermia	ability to cause hyperthermia (TRPV1 [1]; listed as AMG): cause hyperthermia in unanesthetized rats
COc1cccc(NC(=O)/C=C/c2ccc(Cl)cc2)c1 [SB366791]	unable to cause hyperthermia	dose dependently reverse anesthesia-induced hypothermia		ability to cause hyperthermia (TRPV1 [1]; listed as SB): cause hyperthermia in unanesthetized rats
Oc1cc2c(cc1O)CN(C(=S)NCCc1ccc(Cl)cc1)CCC2 [capsazepine]	unable to cause hyperthermia; also recorded: don't	able to prevent anesthesia-induced hypothermia; also recorded: dose dependently reverse anesthesia-induced hypothermia		
CN1CC[C@]23c4c5ccc(O)c4O[C@H]2[C@@H](O)C=C[C@H]3[C@H]1C5 [morphine]				morphine analgesic effect on postsurgical thermal and mechanical hyperalgesia (TRPV1 [5]; animals that received preemptive TRPV1 antagonist treatment before the surgical insult): analgesic effect at much lower doses of 0.3 and 0.6 mg/kg; morphine analgesic effect on postsurgical thermal and mechanical hyperalgesia (TRPV1 [5]; vehicle treated animals): not responsive to morphine until the dose of morphine was raised to 1 mg/kg
